Source: patent publication US20160106110A1, “COMPOSITIONS AND METHODS FOR ENHANCING GERMINATION” (CORNELL UNIVERSITY, priority 2013, published 2016)

What was measured:
TrigoCor spores [1] = experiment: Terbium chloride (DPA release) spore germination assay at 37° C., 10 mM germinant (Example 1); type: cell-based, Bacillus subtilis var. amyloliquefaciens; conditions: for Percent germination of TrigoCor spores: 10 mM germinant, mean ± standard deviation; for percent germination of spores as compared to control (in words): summary of Table 1, 10 mM
Experimental: Bacillus starter cultures were grown in nutrient broth plus yeast extract (Crane et al. 2013), then were transferred 1:1000 to a modified Schaeffer's sporulation medium (Nicholson and Setlow 1990) containing per liter 2.012 g KCl, 0.492 g MgSO4. 7 H20, no NaOH, and 0.0197 g MnCl2.4H20, and grown for 72 h. All cultures were grown in 50 mL aliquots in beveled flasks at 37° C. with 225 RPM shaking. Liquid cultures were spun down at 4° C. for 10 min at 10,000 RCF, washed 10 times in cold deionized water, and resuspended in 5 mL cold deionized water. To remove vegetative cells, cultures were treated with lysozyme (final concentration 50 μg/mL) for 10 min on ice, followed by six rounds of 15 sec sonication on ice, then were washed twice with cold deionized water. Spore preparations were stored in deionized water at 4° C., and prior to use were washed once with cold deionzied water. Unless otherwise noted, spores were resuspended in 25 mM HEPES (Sigma-Aldrich, St. Louis, Mo.) pH 7.41 to produce a final concentration of 10^8 CFUs/mL. Purified spore cultures contained over 98% phase-bright spores and minimal cell debris, as verified through phase contrast microscopy.
Terbium chloride (1 mM) (Sigma-Aldrich, St. Louis, Mo.) and all germinant solutions were prepared in 25 mM HEPES pH 7.41 and added as noted in individual experiments. 90 μL TrigoCor spores were mixed with 10 μL of each germinant (100 mM, final concentration 10 mM) and incubated in a 96-well plate (Thermo Scientific, Waltham, Mass.) at 37° C. for 1, 10, 30, 60, or 120 min. Samples were prepared so that all incubations finished simultaneously and were analyzed together. For each germinant tested, two spore-germinant mixtures were loaded per incubation time. Germinants tested were D-glucose, D-fructose, KBr, KCl, L-alanine, L-asparagine, L-proline, L-valine, and the germinant combination AGFK (equimolar concentrations of L-asparagine, D-glucose, D-fructose, and KCl), or HEPES as a control. Following addition of 100 μL terbium chloride to all samples, fluorescence was measured as explained below.
At each plate reader measurement time, two 90 μL samples of spores autoclaved for 60 min mixed with 10 μL HEPES, as well as a sample containing a mixture of all germinants and HEPES, were added as additional samples in the plate and mixed with 100 μL terbium chloride. A final sample of pure deionized water was included in the plate as well, and these samples were measured alongside all other samples in the plate. Fluorescence was measured at 545 nm emission and 273 nm excitation according to Yi and Setlow (2010) using a Synergy 4 plate reader (Biotek Instruments Inc., Winooski, Vt.). […] Percent spore germination for each sample at each time point was calculated by dividing its relative fluorescence units (RFUs) by the corresponding average RFUs of the autoclaved cells, which have released all their dipicolinic acid (DPA) due to lysis (Yang and Ponce 2009) and provided in Table 1. Spore germination results were confirmed using phase contrast microscopy (data not shown).

TrigoCor spores [2] = experiment: Terbium chloride spore germination assay at 37° C., 10 or 100 mM germinant (Example 2); type: cell-based, Bacillus subtilis var. amyloliquefaciens; conditions: for Percent germination of TrigoCor spores: mean ± standard deviation; for percent germination of spores as compared to control (in words): summary of Table 2, 10 or 100 mM
Experimental: The following protocol was performed as per Example 1, with the following modification:
Terbium chloride (1 mM) (Sigma-Aldrich, St. Louis, Mo.) and all germinant solutions were prepared in 25 mM HEPES pH 7.41 and added as noted in individual experiments. 450 μL TrigoCor spores were mixed with 50 μL of each germinant (100 mM and 1 M, final concentrations 10 mM and 100 mM) and incubated at 37° C. Two samples were prepared for each germinant and germinants tested were D-glucose, L-alanine, AGFK, and an equimolar solution of glucose and alanine, or HEPES as a control. After 10, 30, 60, and 120 minutes of incubation, 100 μL was transferred from each tube to a 96-well plate. For an initial measurement of spore germination, two 100 μL samples of spores not mixed with germinants and kept at 4° C. were analyzed alongside the samples which had incubated for 10 minutes. Immediately following each sample time, 100 μL terbium chloride was added to all samples and fluorescence was measured as explained previously.
Percent spore germination for each sample at each time point was calculated by dividing its relative fluorescence units (RFUs) by the corresponding average RFUs of the autoclaved cells, which have released all their dipicolinic acid (DPA) due to lysis (Yang and Ponce 2009) and provided in Table 2. Spore germination results were confirmed using phase contrast microscopy (data not shown).

[3] = 10 mM germinant, incubation time 10 min
[4] = 10 mM germinant, incubation time 30 min
[5] = 10 mM germinant, incubation time 60 min
[6] = 10 mM germinant, incubation time 120 min
[7] = 100 mM germinant, incubation time 10 min
[8] = 100 mM germinant, incubation time 30 min
[9] = 100 mM germinant, incubation time 60 min
[10] = 100 mM germinant, incubation time 120 min

SMILES | Percent germination of TrigoCor spores (TrigoCor spores [1]; incubation time 1 min) [%] | Percent germination of TrigoCor spores (TrigoCor spores [1]; incubation time 10 min) [%] | Percent germination of TrigoCor spores (TrigoCor spores [1]; incubation time 30 min) [%] | Percent germination of TrigoCor spores (TrigoCor spores [1]; incubation time 60 min) [%] | Percent germination of TrigoCor spores (TrigoCor spores [1]; incubation time 120 min) [%] | percent germination of spores as compared to control (in words) (TrigoCor spores [1]) | Percent germination of TrigoCor spores (TrigoCor spores [2]; [3]) [%] | Percent germination of TrigoCor spores (TrigoCor spores [2]; [4]) [%] | Percent germination of TrigoCor spores (TrigoCor spores [2]; [5]) [%] | Percent germination of TrigoCor spores (TrigoCor spores [2]; [6]) [%] | Percent germination of TrigoCor spores (TrigoCor spores [2]; [7]) [%] | Percent germination of TrigoCor spores (TrigoCor spores [2]; [8]) [%] | Percent germination of TrigoCor spores (TrigoCor spores [2]; [9]) [%] | Percent germination of TrigoCor spores (TrigoCor spores [2]; [10]) [%] | percent germination of spores as compared to control (in words) (TrigoCor spores [2])
[Cl-].[K+] [Potassium chloride] | 1 ± 0 | 1 ± 0 | 1 ± 0 | 1 ± 0 | 1 ± 0 | – | – | – | – | – | – | – | – | – | –
CC(C)[C@H](N)C(=O)O [L-valine] | 1 ± 0 | 1 ± 0 | 1 ± 0 | 1 ± 0 | 1 ± 0 | – | – | – | – | – | – | – | – | – | –
C[C@H](N)C(=O)O [L-alanine] | 1 ± 0 | 4 ± 0 | 20 ± 1 | 23 ± 1 | 21 ± 0 | increases | 1 ± 0 | 13 ± 1 | 41 ± 1 | 43 ± 1 | 1 ± 0 | 47 ± 1 | 86 ± 3 | 90 ± 3 | increases
O=C[C@H](O)[C@@H](O)[C@H](O)[C@H](O)CO [D-glucose] | 1 ± 0 | 1 ± 0 | 5 ± 0 | 10 ± 1 | 25 ± 1 | increases | 1 ± 0 | 5 ± 0 | 13 ± 1 | 28 ± 2 | 1 ± 0 | 7 ± 1 | 18 ± 2 | 34 ± 1 | increases
O=C(CO)[C@@H](O)[C@H](O)[C@H](O)CO [D-fructose] | 1 ± 0 | 1 ± 0 | 1 ± 0 | 1 ± 1 | 1 ± 1 | – | – | – | – | – | – | – | – | – | –
NC(=O)C[C@H](N)C(=O)O [L-asparagine] | 1 ± 0 | 1 ± 0 | 1 ± 0 | 1 ± 0 | 1 ± 0 | – | – | – | – | – | – | – | – | – | –
[Br-].[K+] [Potassium bromide] | 1 ± 0 | 1 ± 0 | 1 ± 0 | 1 ± 0 | 1 ± 0 | – | – | – | – | – | – | – | – | – | –
O=C(O)[C@@H]1CCCN1 [L-proline] | 1 ± 0 | 1 ± 0 | 1 ± 0 | 1 ± 0 | 1 ± 0 | – | – | – | – | – | – | – | – | – | –
